Data on 37 molecules can be found in patent publication US20240376126A1, “PRMT5 INHIBITOR AND THE USE THEREOF” (CYTOSINLAB THERAPEUTICS CO., LTD., priority 2022, published 2024).

The test system of one assay is HCT116 MTAP WT cells. As to the kind of experiment: Proliferation inhibition of HCT116 cells in vitro (CellTiter Glo, 6 days). The settings on record: Homo sapiens, HCT-116, 144 h, read-out: Cell proliferation inhibition rate HCT116 MTAP WT IC50 (nm). In kind it is cell-based. (In general: In ATP-based viability assays light output follows the ATP content of the culture.)

The test system of assay [1] is HCT116-MTAP-KO (MTAP null) cells. The experiment in a line: Proliferation inhibition of HCT116 MTAP-KO cells in vitro (CellTiter Glo, 6 days). The conditions noted are these: HCT116-MTAP null, 144 h, read-out: Cell proliferation inhibition rate HCT116-MTAP null IC50 (nm). In kind it is cell-based.

As for `Cc1ncc2c(N)nc3cc(F)c(C(=O)N(c4cnn(C)c4)C4COc5ccccc54)cc3n12` (centres unmarked) [Example 225], the IC50 with HCT116 MTAP WT cells was 1000 to 10000 nM; in assay [1], less than 100 nM.

Regarding `Cc1ncn2c1c(N)nc1cc(F)c(C(=O)N(C)C3COc4cc(-c5cnn(C)c5)ccc43)cc12` (centres unmarked) [Example 226], the IC50 in the assay with HCT116 MTAP WT cells was in the range of 1000 to 10000 nM; in assay [1], 100 to 1000 nM.

As to `Cc1nn(C)cc1N(Cc1cc2ccccn2n1)C(=O)c1cc2c(cc1F)nc(N)c1cnc(C)n12` [Example 227], the values for the IC50 (in the assay with HCT116 MTAP WT cells; in assay [1]) were 1000 to 10000 nM and less than 100 nM, respectively.

Turning to `CCN(C(=O)c1cc2c(cc1F)nc(N)c1c(C)ncn12)C1COc2cc(Br)cnc21` (centres unmarked) [Example 228], the IC50 with HCT116 MTAP WT cells lay within 1000 to 10000 nM; in assay [1] it was 100 to 1000 nM.

Take `COc1ccc(N(Cc2cn3ccccc3n2)C(=O)c2cc3c(cc2F)nc(N)c2cnc(C)n23)cn1` [Example 229]: the IC50 in the assay with HCT116 MTAP WT cells is 1000 to 10000 nM; in assay [1], less than 100 nM.

Consider `Cc1ncc2c(N)nc3cc(F)c(C(=O)N(Cc4cn5cc(C(F)(F)F)ccc5n4)C4CCOC4)cc3n12` (centres unmarked) [Example 230], for which the IC50 in the assay on HCT116 MTAP WT cells was 1000 to 10000 nM; in assay [1] it was 100 to 1000 nM.

Regarding `Cc1nn(C)cc1N(Cc1cn2ncccc2n1)C(=O)c1cc2c(cc1F)nc(N)c1cnc(C)n12` [Example 231], the values for the IC50 (in the assay with HCT116 MTAP WT cells; in assay [1]) were 1000 to 10000 nM and 100 to 1000 nM, respectively.

Take `Cc1ncc2c(N)nc3cc(F)c(C(=O)N(Cc4cc5ccccn5n4)C4CCOC4)cc3n12` (centres unmarked) [Example 232]: the results for the IC50 (in the assay with HCT116 MTAP WT cells; in assay [1]) were 1000 to 10000 nM and 100 to 1000 nM, respectively.

Turning to `Cc1nn(C)cc1N(Cc1cn2cc(C(F)(F)F)ccc2n1)C(=O)c1cc2c(cc1F)nc(N)c1c(C)ncn12` [Example 233], the IC50 in the assay on HCT116 MTAP WT cells was 1000 to 10000 nM; in assay [1], less than 100 nM.

As for `Cc1nn(C)cc1N(Cc1cn2cc(C(F)(F)F)ccc2n1)C(=O)c1cc2c(cc1F)nc(N)c1cnc(C)n12` [Example 234], the IC50 is 1000 to 10000 nM with HCT116 MTAP WT cells and less than 100 nM in assay [1].

`Cc1nn(C)cc1N(Cc1cc2ccc(C(F)(F)F)cn2n1)C(=O)c1cc2c(cc1F)nc(N)c1c(C)ncn12` [Example 235]: the IC50 (with HCT116 MTAP WT cells; in assay [1]) was less than 100 nM in each case.

In the case of `Cc1nn(C)cc1N(Cc1cc2ccc(C(F)(F)F)cn2n1)C(=O)c1cc2c(cc1F)nc(N)c1cnc(C)n12` [Example 236], the IC50 in the assay on HCT116 MTAP WT cells is 1000 to 10000 nM; in assay [1] it was less than 100 nM.

Regarding `Cc1nn(C)cc1N(Cc1nc2ccccc2[nH]1)C(=O)c1cc2c(cc1F)nc(N)c1c(C)ncn12` [Example 237], the IC50 lay within 1000 to 10000 nM in the assay on HCT116 MTAP WT cells and 100 to 1000 nM in assay [1].

Turning to `Cc1ncc2c(N)nc3cc(F)c(C(=O)N(Cc4cn5cc(C(F)(F)F)ccc5n4)c4ccnn4C)cc3n12` [Example 239], the IC50 is 1000 to 10000 nM in the assay with HCT116 MTAP WT cells and less than 100 nM in assay [1].

On to `Cc1ncc2c(N)nc3cc(F)c(C(=O)N(Cc4cn5cc(C(F)(F)F)ccc5n4)c4c(F)cnn4C)cc3n12` [Example 241, 4-amino-7-fluoro-N-(4-fluoro-2-methyl-pyrazol-3-yl)-1-methyl-N-[[6-(trifluoromethyl)imidazolo [1,2-a]pyridin-2-yl]methyl] imidazolo [1,5-a] quinoxalin-8-carboxamide], for which the results for the IC50 (with HCT116 MTAP WT cells; in assay [1]) were 100 to 1000 nM and less than 100 nM, respectively.

`CCn1nccc1N(Cc1cn2cc(C(F)(F)F)ccc2n1)C(=O)c1cc2c(cc1F)nc(N)c1cnc(C)n12` [Example 242]: the results for the IC50 (in the assay on HCT116 MTAP WT cells; in assay [1]) were 100 to 1000 nM and less than 100 nM, respectively.

On to `Cc1ncc2c(N)nc3cc(F)c(C(=O)N(Cc4cn5cc(CN6CCOCC6)ccc5n4)c4ccnn4C)cc3n12` [Example 243], for which the IC50 with HCT116 MTAP WT cells was in the range of 1000 to 10000 nM; in assay [1] it was 100 to 1000 nM.

Take `Cc1ncc2c(N)nc3cc(F)c(C(=O)N(Cc4cn5ccccc5n4)c4ccnn4C)cc3n12` [Example 244]: the IC50 was 1000 to 10000 nM in the assay on HCT116 MTAP WT cells and less than 100 nM in assay [1].

As for `Cc1ncc2c(N)nc3cc(F)c(C(=O)N(Cc4nc5ccc(C(F)(F)F)cc5[nH]4)c4ccnn4C)cc3n12` [Example 245], the IC50 is 1000 to 10000 nM with HCT116 MTAP WT cells and less than 100 nM in assay [1].

On to `Cc1ncc2c(N)nc3cc(F)c(C(=O)N(Cc4cn5cc(C(F)(F)F)ccc5n4)c4ccnn4C(F)F)cc3n12` [Example 246], for which the IC50 with HCT116 MTAP WT cells was 1000 to 10000 nM; in assay [1], less than 100 nM.

On to `CCN(Cc1cn2cc(-c3cnn(C)c3)ccc2n1)C(=O)c1cc2c(cc1F)nc(N)c1cnc(C)n12` [Example 247], for which the IC50 in the assay with HCT116 MTAP WT cells fell in the range of 1000 to 10000 nM; in assay [1] it was 100 to 1000 nM.

On to `CCN(Cc1cn2cc(CN3CCOCC3)ccc2n1)C(=O)c1cc2c(cc1F)nc(N)c1c(C)ncn12` [Example 249], for which the IC50 is 1000 to 10000 nM with HCT116 MTAP WT cells and 100 to 1000 nM in assay [1].

Turning to `CCN(Cc1cc2ccccn2n1)C(=O)c1cc2c(cc1F)nc(N)c1cnc(C)n12` [Example 250], the IC50 in the assay with HCT116 MTAP WT cells was 1000 to 10000 nM; in assay [1], less than 100 nM.

In the case of `Cc1ncc2c(N)nc3cc(F)c(C(=O)N(Cc4cn5ccccc5n4)CC(F)F)cc3n12` [Example 252], the IC50 in the assay with HCT116 MTAP WT cells was in the range of 1000 to 10000 nM; in assay [1], 100 to 1000 nM.

Turning to `Cc1ncn2c1c(N)nc1cc(F)c(C(=O)N(Cc3cn4cc(C#N)ccc4n3)c3cnn(C)c3)cc12` [Example 253], the IC50 in the assay with HCT116 MTAP WT cells fell in the range of 1000 to 10000 nM; in assay [1] it was 100 to 1000 nM.

As to `Cc1ncn2c1c(N)nc1cc(F)c(C(=O)N(Cc3cn4cc(CN5CCOCC5)ccc4n3)c3cnn(C)c3)cc12` [Example 254], the IC50 lay within 1000 to 10000 nM in the assay with HCT116 MTAP WT cells and 100 to 1000 nM in assay [1].

For the molecule `Cc1ncn2c1c(N)nc1cc(F)c(C(=O)N(Cc3cn4ccccc4n3)c3cnn(C)c3C)cc12` [Example 255], the figures for the IC50 (with HCT116 MTAP WT cells; in assay [1]) were 1000 to 10000 nM and 100 to 1000 nM, respectively.

Consider `Cc1ncn2c1c(N)nc1cc(F)c(C(=O)N(Cc3cn4ccccc4n3)c3cnn(C)c3)cc12` [Example 257], for which the IC50 in the assay on HCT116 MTAP WT cells was 1000 to 10000 nM; in assay [1] it was 100 to 1000 nM.

In the case of `CCN(Cc1cn2cc(-c3cnn(C)c3)ccc2n1)C(=O)c1cc2c(cc1F)nc(N)c1c(C)ncn12` [Example 258], the IC50 fell in the range of 1000 to 10000 nM with HCT116 MTAP WT cells and 100 to 1000 nM in assay [1].

Regarding `Cc1ncn2c1c(N)nc1cc(F)c(C(=O)N(Cc3cn4cc(C(F)(F)F)ccc4n3)c3cnn(C)c3)cc12` [Example 259], the IC50 with HCT116 MTAP WT cells is 1000 to 10000 nM; in assay [1], less than 100 nM.

As for `Cc1ncn2c1c(N)nc1cc(F)c(C(=O)N(Cc3cn4ccccc4n3)C3CCC3O)cc12` (centres unmarked) [Example 261], the results for the IC50 (with HCT116 MTAP WT cells; in assay [1]) were 1000 to 10000 nM and 100 to 1000 nM, respectively.

Regarding `Cc1ncn2c1c(N)nc1cc(F)c(C(=O)N(Cc3cn4ccccc4n3)c3cnn(C)n3)cc12` [Example 262], the IC50 was 1000 to 10000 nM in the assay with HCT116 MTAP WT cells and less than 100 nM in assay [1].

`CCN(Cc1cn2cc(OC)ccc2n1)C(=O)c1cc2c(cc1F)nc(N)c1c(C)ncn12` [Example 263]: the results for the IC50 (with HCT116 MTAP WT cells; in assay [1]) were 1000 to 10000 nM and 100 to 1000 nM, respectively.

With `Cc1ncn2c1c(N)nc1cc(F)c(C(=O)N(CCC#N)Cc3cn4ccccc4n3)cc12` [Example 264], the IC50 with HCT116 MTAP WT cells is 1000 to 10000 nM; in assay [1] it was 100 to 1000 nM.

For `CCN(Cc1cn2cc(F)ccc2n1)C(=O)c1cc2c(cc1F)nc(N)c1c(C)ncn12` [Example 267], the IC50 in the assay with HCT116 MTAP WT cells is 1000 to 10000 nM; in assay [1], less than 100 nM.

With `CCN(Cc1cn2ccccc2n1)C(=O)c1cc2c(cc1C)nc(N)c1cnc(C)n12` [Example 268], the IC50 with HCT116 MTAP WT cells was in the range of 1000 to 10000 nM; in assay [1], 100 to 1000 nM.

In the case of `Cc1ncn2c1c(N)nc1cc(F)c(C(=O)N(Cc3nc4ccc(C(F)(F)F)cc4[nH]3)CC(C)C)cc12` [Example 269], the values for the IC50 (in the assay on HCT116 MTAP WT cells; in assay [1]) were 1000 to 10000 nM and 100 to 1000 nM, respectively.
